Experiments:
Mus musculus = assay: Antinociceptive potency in mice using the tail-flick test on icv administration.; assay type: functional
[1] = biological target: Kappa-type opioid receptor (Cavia porcellus, UniProt P41144); assay: selective binding affinity against kappa opioid receptor, using [3H]U-69593 as radioligand
Mu-type opioid receptor = Mu-type opioid receptor (Cavia porcellus, UniProt P97266); assay: selective binding affinity against mu opioid receptor, using [3H]DAMGO as radioligand
Sequence of Mu-type opioid receptor (P97266 whole entry): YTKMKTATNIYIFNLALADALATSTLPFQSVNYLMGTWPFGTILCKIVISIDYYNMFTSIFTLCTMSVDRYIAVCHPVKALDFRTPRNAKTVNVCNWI

Sequence of Kappa-type opioid receptor (P41144 whole entry): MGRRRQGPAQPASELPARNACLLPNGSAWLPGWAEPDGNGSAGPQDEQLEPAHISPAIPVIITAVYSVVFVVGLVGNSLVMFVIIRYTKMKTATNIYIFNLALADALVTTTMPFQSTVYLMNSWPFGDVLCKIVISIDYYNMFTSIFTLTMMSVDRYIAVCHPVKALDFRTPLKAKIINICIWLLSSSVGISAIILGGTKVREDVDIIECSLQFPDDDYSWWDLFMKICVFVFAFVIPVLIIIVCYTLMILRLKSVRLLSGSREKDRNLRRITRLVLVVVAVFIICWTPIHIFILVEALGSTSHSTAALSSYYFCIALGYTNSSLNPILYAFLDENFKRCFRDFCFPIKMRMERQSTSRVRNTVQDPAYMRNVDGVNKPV

SMILES | ED50 (Mus musculus) | Ki [1] | Ki (Mu-type opioid receptor)
CN1CC[C@]23c4c5ccc(O)c4O[C@H]2C(=O)C2(Cc4ccccc4C2)C[C@@]3(O)[C@H]1C5 [SPIROINDANYLOXYMORPHONE] | 1.7 nM mouse-1 | 588 nM | 10.6 nM
CC1(C)SSC(C)(C)[C@@H](NC(=O)[C@@H](N)Cc2ccc(O)cc2)C(=O)NCC(=O)N[C@@H](Cc2ccccc2)C(=O)N[C@H]1C(=O)O | 11.5 nM mouse-1 |  | 

— ChEMBL document CHEMBL1126784, “A selective delta 1 opioid receptor agonist derived from oxymorphone. Evidence for separate recognition sites for delta 1 opioid receptor agonists and antagonists” (J Med Chem, 1993)
